Blank lines part the entries; values can stand above or below the compound they belong to. Active and inactive are the calls of the source.
Legend:
Type in all cases: functional
[1] = molecular target: T1, Multidrug resistance protein CDR2 (Candida albicans (strain SC5314 / ATCC MYA-2876) (Yeast), UniProt P78595); assay: CaCDR2 efflux pump inhibitors in yeast, dose response, S. cerevisiae AD1-8u, singleplex, Cherry Pick2 set (AID 623994); details: read-out: EC50_MICROM
[2] = molecular target: T2, Ubiquitin-conjugating enzyme E2 N (Homo sapiens, UniProt P61088);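 note: Dose-response confirmation in a TR-FRET assay detecting UBC13-driven polyubiquitin chain formation, inhibition measured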
T2 sequence (P61088 whole entry): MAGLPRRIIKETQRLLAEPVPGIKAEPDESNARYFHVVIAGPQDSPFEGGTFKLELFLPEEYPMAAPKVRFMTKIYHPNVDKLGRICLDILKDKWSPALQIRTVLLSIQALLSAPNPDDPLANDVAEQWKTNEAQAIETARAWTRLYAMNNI

[3] = molecular target: T1, Multidrug resistance protein CDR2; assay: CaCDR2 efflux pump inhibitors in yeast, dose response, S. cerevisiae AD1-8u, singleplex, Cherry Pick1 hits (AID 588604)
[4] = molecular target: Protein disulfide-isomerase (Homo sapiens, UniProt P07237); assay: PDI inhibitors, insulin aggregation turbidity, dose response, biochemical, absorbance, cherry-picked samples (AID 602350)
[5] = molecular target: Cyclin-dependent kinase 8 (Homo sapiens, UniProt P49336); assay: Navigating the Kinome. Panel member name: CDK8
[6] = molecular target: Serine/threonine-protein kinase Chk1 (Homo sapiens, UniProt O14757);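 note: measured as one member of a kinome-wide kinase profiling panel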
[7] = molecular target: Mitogen-activated protein kinase kinase kinase kinase 2 (Homo sapiens, UniProt Q12851);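 note: measured as one member of a kinome-wide kinase panel, with MAP4K2 as the panel entry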
[8] = molecular target: Glycogen synthase kinase-3 alpha (Homo sapiens, UniProt P49840);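 note: GSK3A result taken from a broad kinome-wide kinase panel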
[9] = molecular target: Tyrosine-protein kinase Lck (Homo sapiens, UniProt P06239);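 note: lck was assayed as one member of a kinase panel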
[10] = molecular target: Macrophage colony-stimulating factor 1 receptor (Homo sapiens, UniProt P07333);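 note: value comes from the Navigating the Kinome screening panel, CSF1R member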
[11] = molecular target: Platelet-derived growth factor receptor beta (Homo sapiens, UniProt P09619);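 note: value comes from a kinome panel, with PDGFRB tested as one panel member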
Activin receptor type-1 = Activin receptor type-1 (Homo sapiens, UniProt Q04771); assay: Navigating the Kinome. Panel member name: ACVR1
[12] = molecular target: Leucine-rich repeat serine/threonine-protein kinase 2 (Homo sapiens, UniProt Q5S007);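 note: value from a broad kinome-wide panel profiling study in which LRRK2 was one of the kinases tested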
[13] = molecular target: Dual specificity mitogen-activated protein kinase kinase 2 (Homo sapiens, UniProt P36507); assay: Navigating the Kinome. Panel member name: MAP2K2
Aurora kinase A = Aurora kinase A (Homo sapiens, UniProt O14965);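 note: value from the Navigating the Kinome kinase panel profiling, panel entry STK6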
[14] = molecular target: Tyrosine-protein kinase Fyn (Homo sapiens, UniProt P06241)
[15] = molecular target: Dual specificity tyrosine-phosphorylation-regulated kinase 1A (Homo sapiens, UniProt Q13627);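 note: measured against DYRK1A as one member of a broad kinome profiling panel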
[16] = molecular target: Serine/threonine-protein kinase PAK 4 (Homo sapiens, UniProt O96013);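 note: value obtained within a kinome profiling panel in which PAK4 was one of the panel members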
[17] = molecular target: Vascular endothelial growth factor receptor 2 (Homo sapiens, UniProt P35968)
[18] = molecular target: Cyclin-dependent kinase 5 (Homo sapiens, UniProt Q00535);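 note: CDK5 measured as one member of a kinase profiling panel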
[19] = molecular target: G protein-coupled receptor kinase 5 (Homo sapiens, UniProt P34947); assay: Navigating the Kinome. Panel member name: GPRK5
[20] = molecular target: Cyclin-dependent kinase 9 (Homo sapiens, UniProt P50750);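 note: value from the CDK9 entry of a kinome-spanning kinase panel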
[21] = molecular target: Receptor-type tyrosine-protein kinase FLT3 (Homo sapiens, UniProt P36888);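 note: FLT3 was tested as one member of a kinome-wide kinase panel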
Focal adhesion kinase 1 = Focal adhesion kinase 1 (Homo sapiens, UniProt Q05397);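 note: measured as one member of a kinome panel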
[22] = molecular target: Mitogen-activated protein kinase 8 (Homo sapiens, UniProt P45983);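 note: value comes from one member of a kinome-wide kinase profiling panel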
[23] = molecular target: 5'-AMP-activated protein kinase catalytic subunit alpha-1 (Homo sapiens, UniProt Q13131)
[24] = molecular target: Dual specificity protein kinase CLK4 (Homo sapiens, UniProt Q9HAZ1)
[25] = molecular target: Death-associated protein kinase 3 (Homo sapiens, UniProt O43293);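 note: measured as one member of a kinome-wide profiling panel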
Aurora kinase B = Aurora kinase B (Homo sapiens, UniProt Q96GD4)
[26] = molecular target: Rho-associated protein kinase 1 (Homo sapiens, UniProt Q13464);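 note: measured within a broad kinome-wide panel profiling many kinases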
[27] = molecular target: Protein kinase C theta type (Homo sapiens, UniProt Q04759); assay: Navigating the Kinome. Panel member name: PRKCQ
[28] = molecular target: Proto-oncogene tyrosine-protein kinase receptor Ret (Homo sapiens, UniProt P07949);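 note: measured within a kinome-wide profiling panel, RET as the panel member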
[29] = molecular target: Serine/threonine-protein kinase Nek2 (Homo sapiens, UniProt P51955)
[30] = molecular target: Cyclin-dependent kinase 7 (Homo sapiens, UniProt P50613);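 note: value comes from a kinome-wide kinase profiling panel in which CDK7 is one member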
[31] = molecular target: ALK tyrosine kinase receptor (Homo sapiens, UniProt Q9UM73);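 note: ALK tested as one member of a kinase panel screen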
[32] = molecular target: Dual specificity mitogen-activated protein kinase kinase 1 (Homo sapiens, UniProt Q02750); assay: Navigating the Kinome. Panel member name: MAP2K1
[33] = molecular target: Serine/threonine-protein kinase TAO1 (Homo sapiens, UniProt Q7L7X3)
[34] = molecular target: Tyrosine-protein kinase receptor TYRO3 (Homo sapiens, UniProt Q06418);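 note: TYRO3 value obtained as one member of a kinome-wide profiling panel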
[35] = molecular target: Tyrosine-protein kinase JAK2 (Homo sapiens, UniProt O60674);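 note: JAK2 tested as one member of a kinase panel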
[36] = molecular target: Dual specificity tyrosine-phosphorylation-regulated kinase 1B (Homo sapiens, UniProt Q9Y463); assay: Navigating the Kinome. Panel member name: DYRK1B
[37] = molecular target: Hepatocyte growth factor receptor (Homo sapiens, UniProt P08581);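 note: kinase panel profiling across the kinome, with MET as the panel member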
[38] = molecular target: Tyrosine-protein kinase JAK3 (Homo sapiens, UniProt P52333)
[39] = molecular target: Ribosomal protein S6 kinase alpha-3 (Homo sapiens, UniProt P51812);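 note: measured within a kinome-wide profiling panel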
[40] = molecular target: Inhibitor of nuclear factor kappa-B kinase subunit epsilon (Homo sapiens, UniProt Q14164); assay: Navigating the Kinome. Panel member name: IKBKE
LIM domain kinase 1 = LIM domain kinase 1 (Homo sapiens, UniProt P53667); assay: Navigating the Kinome. Panel member name: LIMK1
[41] = molecular target: Insulin-like growth factor 1 receptor (Homo sapiens, UniProt P08069); assay: Navigating the Kinome. Panel member name: IGF1R
[42] = molecular target: Casein kinase I isoform alpha (Homo sapiens, UniProt P48729)
[43] = molecular target: BDNF/NT-3 growth factors receptor (Homo sapiens, UniProt Q16620);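 note: NTRK2 measured as one member of a broad kinome-wide kinase profiling panel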
Activated CDC42 kinase 1 = Activated CDC42 kinase 1 (Homo sapiens, UniProt Q07912); assay: Navigating the Kinome. Panel member name: ACK1
[44] = molecular target: cAMP-dependent protein kinase catalytic subunit PRKX (Homo sapiens, UniProt P51817)
[45] = molecular target: Leukocyte tyrosine kinase receptor (Homo sapiens, UniProt P29376); assay: Navigating the Kinome. Panel member name: LTK
[46] = molecular target: Serine/threonine-protein kinase pim-1 (Homo sapiens, UniProt P11309)
[47] = molecular target: Cyclin-dependent kinase 19 (Homo sapiens, UniProt Q9BWU1); assay: Navigating the Kinome. Panel member name: CDC2L6
[48] = molecular target: T3, Sphingosine 1-phosphate receptor 4 (Homo sapiens, UniProt O95977); assay: Late-stage fluorescence-based dose-response cell-based counterscreen assay to identify agonists of the Sphingosine 1-Phosphate Receptor 3 (S1P3): Sphingosine 1-Phosphate Receptor 4 (S1P4) agonist assay.
T3 sequence (O95977 whole entry): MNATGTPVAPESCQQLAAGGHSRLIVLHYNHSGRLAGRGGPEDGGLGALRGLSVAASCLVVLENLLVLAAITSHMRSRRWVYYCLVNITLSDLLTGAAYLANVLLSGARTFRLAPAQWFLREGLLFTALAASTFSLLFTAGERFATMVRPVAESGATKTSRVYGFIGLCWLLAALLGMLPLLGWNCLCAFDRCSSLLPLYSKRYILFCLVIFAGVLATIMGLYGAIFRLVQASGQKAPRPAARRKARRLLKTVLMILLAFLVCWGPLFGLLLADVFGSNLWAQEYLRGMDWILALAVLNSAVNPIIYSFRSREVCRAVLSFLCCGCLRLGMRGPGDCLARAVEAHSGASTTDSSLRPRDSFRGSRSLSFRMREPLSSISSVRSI

[49] = molecular target: Sphingosine 1-phosphate receptor 2 (Homo sapiens, UniProt O95136); assay: Late-stage fluorescence-based dose-response cell-based counterscreen assay to identify agonists of the Sphingosine 1-Phosphate Receptor 3 (S1P3): Sphingosine 1-Phosphate Receptor 2 (S1P2) agonist assay.
[50] = molecular target: T4, Apoptotic protease-activating factor 1 (Homo sapiens, UniProt O14727); assay: SAR analysis of small molecule inhibitors of Apaf-1 in a Fluorescent assay.; details: read-out: IC50_Mean
T4 sequence (O14727 whole entry): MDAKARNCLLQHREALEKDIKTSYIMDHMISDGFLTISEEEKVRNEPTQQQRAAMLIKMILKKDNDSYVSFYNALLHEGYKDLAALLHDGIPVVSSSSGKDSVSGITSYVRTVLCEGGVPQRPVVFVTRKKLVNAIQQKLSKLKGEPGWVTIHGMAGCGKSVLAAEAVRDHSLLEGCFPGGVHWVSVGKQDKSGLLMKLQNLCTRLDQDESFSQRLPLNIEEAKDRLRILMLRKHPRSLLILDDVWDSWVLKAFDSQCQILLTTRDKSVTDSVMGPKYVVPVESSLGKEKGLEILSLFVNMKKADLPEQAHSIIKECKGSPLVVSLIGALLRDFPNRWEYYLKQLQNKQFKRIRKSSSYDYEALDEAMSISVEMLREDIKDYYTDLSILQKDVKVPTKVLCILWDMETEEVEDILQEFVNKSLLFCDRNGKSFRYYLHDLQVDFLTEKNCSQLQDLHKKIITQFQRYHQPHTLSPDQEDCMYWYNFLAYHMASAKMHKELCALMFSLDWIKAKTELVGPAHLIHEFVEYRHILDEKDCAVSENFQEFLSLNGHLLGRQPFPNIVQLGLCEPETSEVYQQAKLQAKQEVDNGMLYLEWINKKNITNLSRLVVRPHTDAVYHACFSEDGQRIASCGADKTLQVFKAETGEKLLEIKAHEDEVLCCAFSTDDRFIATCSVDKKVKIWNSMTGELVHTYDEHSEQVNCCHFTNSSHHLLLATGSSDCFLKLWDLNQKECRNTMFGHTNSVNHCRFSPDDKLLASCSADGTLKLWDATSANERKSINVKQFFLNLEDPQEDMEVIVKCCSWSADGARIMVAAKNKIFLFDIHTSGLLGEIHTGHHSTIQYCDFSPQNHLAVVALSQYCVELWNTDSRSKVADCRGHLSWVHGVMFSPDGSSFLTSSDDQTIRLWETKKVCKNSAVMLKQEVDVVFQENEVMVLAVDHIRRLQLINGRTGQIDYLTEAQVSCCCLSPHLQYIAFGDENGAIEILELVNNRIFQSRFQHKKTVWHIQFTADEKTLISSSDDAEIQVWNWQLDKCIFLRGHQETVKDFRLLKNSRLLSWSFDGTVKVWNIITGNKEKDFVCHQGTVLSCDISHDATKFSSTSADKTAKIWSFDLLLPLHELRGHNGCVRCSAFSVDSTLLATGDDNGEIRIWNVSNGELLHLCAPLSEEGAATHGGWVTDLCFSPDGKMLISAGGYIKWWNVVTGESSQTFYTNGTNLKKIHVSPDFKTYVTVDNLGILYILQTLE

T1 sequence (P78595 whole entry): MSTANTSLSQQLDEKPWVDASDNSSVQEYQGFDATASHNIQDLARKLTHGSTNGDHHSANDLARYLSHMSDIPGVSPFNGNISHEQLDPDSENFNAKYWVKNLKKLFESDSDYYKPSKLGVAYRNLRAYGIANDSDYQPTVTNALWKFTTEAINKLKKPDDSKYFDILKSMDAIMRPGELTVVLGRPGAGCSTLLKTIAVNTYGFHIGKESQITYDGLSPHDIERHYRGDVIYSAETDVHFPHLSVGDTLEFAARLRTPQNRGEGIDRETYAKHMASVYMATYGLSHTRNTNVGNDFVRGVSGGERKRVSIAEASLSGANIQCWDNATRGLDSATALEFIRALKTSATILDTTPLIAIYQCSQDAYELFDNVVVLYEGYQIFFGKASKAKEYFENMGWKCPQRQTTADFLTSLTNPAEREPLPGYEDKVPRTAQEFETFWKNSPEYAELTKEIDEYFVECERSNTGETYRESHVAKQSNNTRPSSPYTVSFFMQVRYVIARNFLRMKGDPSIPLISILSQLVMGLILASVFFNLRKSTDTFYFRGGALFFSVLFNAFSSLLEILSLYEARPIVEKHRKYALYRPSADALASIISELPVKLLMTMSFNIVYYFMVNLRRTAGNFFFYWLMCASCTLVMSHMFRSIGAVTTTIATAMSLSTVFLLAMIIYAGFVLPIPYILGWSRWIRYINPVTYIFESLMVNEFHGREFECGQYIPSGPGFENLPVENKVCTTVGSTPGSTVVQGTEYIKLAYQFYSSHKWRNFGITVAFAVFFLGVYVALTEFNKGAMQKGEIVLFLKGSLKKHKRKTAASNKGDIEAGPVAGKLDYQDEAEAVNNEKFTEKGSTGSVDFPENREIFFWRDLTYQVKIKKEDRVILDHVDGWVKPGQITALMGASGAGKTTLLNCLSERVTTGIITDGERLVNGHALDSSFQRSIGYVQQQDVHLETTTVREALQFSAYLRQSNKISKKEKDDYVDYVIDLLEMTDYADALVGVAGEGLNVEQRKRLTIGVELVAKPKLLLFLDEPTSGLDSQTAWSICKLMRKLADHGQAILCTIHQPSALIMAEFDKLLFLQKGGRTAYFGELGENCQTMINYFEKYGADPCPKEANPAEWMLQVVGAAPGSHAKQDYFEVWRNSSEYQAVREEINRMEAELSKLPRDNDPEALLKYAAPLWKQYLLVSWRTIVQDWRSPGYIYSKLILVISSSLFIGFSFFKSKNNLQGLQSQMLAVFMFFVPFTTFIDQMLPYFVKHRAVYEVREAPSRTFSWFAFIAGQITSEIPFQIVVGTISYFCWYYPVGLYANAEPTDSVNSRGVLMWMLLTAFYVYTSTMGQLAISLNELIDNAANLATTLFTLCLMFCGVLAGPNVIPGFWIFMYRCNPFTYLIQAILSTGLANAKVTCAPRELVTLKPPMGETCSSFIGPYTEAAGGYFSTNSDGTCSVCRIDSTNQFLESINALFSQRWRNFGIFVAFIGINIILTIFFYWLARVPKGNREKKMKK
ALK tyrosine kinase receptor, sequence (Q9UM73 whole entry): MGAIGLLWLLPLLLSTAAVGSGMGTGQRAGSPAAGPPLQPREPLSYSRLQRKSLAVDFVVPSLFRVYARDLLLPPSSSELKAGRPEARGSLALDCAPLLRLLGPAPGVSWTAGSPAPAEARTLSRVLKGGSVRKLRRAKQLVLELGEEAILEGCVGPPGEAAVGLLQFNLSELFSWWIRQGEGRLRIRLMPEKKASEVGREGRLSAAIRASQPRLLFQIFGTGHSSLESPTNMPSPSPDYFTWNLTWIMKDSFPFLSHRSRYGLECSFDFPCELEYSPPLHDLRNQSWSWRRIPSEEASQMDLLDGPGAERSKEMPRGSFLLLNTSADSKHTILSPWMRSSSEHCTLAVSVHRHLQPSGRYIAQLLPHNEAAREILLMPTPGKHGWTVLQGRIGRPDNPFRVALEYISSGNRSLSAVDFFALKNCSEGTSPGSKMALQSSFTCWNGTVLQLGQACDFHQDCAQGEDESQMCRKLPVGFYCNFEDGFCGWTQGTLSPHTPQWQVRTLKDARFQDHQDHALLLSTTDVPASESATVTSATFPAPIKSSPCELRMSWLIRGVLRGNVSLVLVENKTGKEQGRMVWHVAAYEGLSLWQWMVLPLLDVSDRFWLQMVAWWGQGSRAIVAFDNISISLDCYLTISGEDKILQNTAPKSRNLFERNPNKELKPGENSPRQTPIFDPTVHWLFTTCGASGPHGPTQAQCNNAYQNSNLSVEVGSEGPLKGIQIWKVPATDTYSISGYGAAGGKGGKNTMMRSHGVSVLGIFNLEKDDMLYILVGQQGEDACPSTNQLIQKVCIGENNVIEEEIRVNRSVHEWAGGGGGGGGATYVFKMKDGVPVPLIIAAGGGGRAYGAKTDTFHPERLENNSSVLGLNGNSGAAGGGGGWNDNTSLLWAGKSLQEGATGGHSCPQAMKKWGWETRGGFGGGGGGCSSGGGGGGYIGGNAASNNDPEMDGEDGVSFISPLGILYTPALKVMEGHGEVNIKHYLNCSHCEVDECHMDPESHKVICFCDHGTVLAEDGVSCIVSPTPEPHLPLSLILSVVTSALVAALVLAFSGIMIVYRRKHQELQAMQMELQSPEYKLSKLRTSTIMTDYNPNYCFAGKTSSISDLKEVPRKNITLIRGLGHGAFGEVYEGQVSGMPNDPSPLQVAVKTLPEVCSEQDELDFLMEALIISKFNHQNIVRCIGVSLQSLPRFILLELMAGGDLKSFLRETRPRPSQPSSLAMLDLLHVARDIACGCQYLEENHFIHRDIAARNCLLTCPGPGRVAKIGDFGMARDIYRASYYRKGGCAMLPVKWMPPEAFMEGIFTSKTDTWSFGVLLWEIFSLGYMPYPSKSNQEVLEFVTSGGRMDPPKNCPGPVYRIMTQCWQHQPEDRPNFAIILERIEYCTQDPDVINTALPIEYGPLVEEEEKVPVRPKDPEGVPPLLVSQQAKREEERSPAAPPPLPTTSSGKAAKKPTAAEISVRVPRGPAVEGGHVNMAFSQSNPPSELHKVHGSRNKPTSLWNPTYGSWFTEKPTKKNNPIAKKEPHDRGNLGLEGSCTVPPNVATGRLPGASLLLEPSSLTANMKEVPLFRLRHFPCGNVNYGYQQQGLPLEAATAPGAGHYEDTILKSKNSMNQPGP
Cyclin-dependent kinase 9, sequence (P50750 whole entry): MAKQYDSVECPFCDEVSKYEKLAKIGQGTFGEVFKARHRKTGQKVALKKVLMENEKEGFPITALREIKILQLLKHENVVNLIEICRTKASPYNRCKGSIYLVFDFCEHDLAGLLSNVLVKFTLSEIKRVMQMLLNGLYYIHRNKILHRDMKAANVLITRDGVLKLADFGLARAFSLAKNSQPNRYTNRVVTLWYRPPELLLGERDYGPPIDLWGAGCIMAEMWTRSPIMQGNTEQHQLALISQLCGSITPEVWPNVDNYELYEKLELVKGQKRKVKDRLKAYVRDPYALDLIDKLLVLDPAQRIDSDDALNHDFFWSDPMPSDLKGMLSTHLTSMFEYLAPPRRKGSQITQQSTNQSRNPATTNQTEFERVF
Mitogen-activated protein kinase kinase kinase kinase 2, sequence (Q12851 whole entry): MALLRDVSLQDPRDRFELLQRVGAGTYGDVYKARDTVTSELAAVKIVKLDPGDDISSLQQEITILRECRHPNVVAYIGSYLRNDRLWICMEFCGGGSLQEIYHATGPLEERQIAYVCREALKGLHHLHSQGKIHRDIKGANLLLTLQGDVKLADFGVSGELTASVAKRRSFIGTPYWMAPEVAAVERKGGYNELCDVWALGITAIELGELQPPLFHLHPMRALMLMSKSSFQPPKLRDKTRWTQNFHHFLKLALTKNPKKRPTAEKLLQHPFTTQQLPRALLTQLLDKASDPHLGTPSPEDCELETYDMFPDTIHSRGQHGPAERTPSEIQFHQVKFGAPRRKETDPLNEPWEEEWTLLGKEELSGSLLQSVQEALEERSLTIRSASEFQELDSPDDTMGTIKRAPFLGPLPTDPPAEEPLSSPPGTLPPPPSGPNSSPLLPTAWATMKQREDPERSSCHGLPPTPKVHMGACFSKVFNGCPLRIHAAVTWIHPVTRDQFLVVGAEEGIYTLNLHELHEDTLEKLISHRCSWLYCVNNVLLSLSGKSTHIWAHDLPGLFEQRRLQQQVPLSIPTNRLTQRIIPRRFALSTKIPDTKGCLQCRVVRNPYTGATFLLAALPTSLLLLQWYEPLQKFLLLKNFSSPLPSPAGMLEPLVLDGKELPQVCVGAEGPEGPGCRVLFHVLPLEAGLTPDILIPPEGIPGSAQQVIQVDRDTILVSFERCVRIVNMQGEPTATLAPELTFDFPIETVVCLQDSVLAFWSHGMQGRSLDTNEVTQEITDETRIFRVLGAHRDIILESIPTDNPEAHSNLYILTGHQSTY
G protein-coupled receptor kinase 5, sequence (P34947 whole entry): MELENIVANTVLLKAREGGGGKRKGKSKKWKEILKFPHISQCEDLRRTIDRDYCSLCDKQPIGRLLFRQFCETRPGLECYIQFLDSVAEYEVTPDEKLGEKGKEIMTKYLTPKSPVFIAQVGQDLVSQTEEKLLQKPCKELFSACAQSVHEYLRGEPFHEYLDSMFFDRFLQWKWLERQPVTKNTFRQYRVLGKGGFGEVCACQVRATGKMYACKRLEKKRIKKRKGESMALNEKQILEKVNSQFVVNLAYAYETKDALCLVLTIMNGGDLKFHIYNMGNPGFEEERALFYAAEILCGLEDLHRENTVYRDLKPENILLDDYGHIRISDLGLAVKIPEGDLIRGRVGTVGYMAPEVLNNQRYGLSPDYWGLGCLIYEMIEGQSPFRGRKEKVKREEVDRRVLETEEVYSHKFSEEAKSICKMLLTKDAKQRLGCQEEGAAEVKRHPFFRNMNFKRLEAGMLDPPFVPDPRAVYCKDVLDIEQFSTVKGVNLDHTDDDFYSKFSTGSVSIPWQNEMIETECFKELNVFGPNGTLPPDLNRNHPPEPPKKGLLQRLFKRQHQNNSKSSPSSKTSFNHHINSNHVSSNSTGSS

SMILES: NC1=NC[C@@H](Cc2ccc(O)cc2)N1CCCCC1CCCCC1
- EC50 [1]: 16300 nM (active)
- IC50 [2]: > 20000 nM (inactive)
- EC50 [3]: 27300 nM (active)

SMILES: NC(=O)c1ccc2nc(-c3ccc([N+](=O)[O-])o3)cn2c1
- Ki [5]: 126 nM (active)
- Ki [6]: 50.1 nM (active)
- Ki [7]: 251 nM (active)
- Ki [8]: 1000 nM (active)
- Ki [9]: > 6310 nM (inactive)
- Ki [10]: 1260 nM (active)
- Ki [11]: 1000 nM (active)
- Ki (Activin receptor type-1): 200 nM (active)
- Ki [12]: 126 nM (active)
- Ki [13]: 1000 nM (active)
- Ki (Aurora kinase A): 126 nM (active)
- Ki [14]: 2000 nM (active)
- Ki [15]: 31.6 nM (active)
- Ki [16]: 794 nM (active)
- Ki [17]: > 2510 nM (inactive)
- Ki [18]: 126 nM (active)
- Ki [19]: 158 nM (active)
- Ki [20]: 39.8 nM (active)
- Ki [21]: 2510 nM (active)
- Ki (Focal adhesion kinase 1): 316 nM (active)
- Ki [22]: 1580 nM (active)
- Ki [23]: 158 nM (active)
- Ki [24]: 20 nM (active)
- Ki [25]: 251 nM (active)
- Ki (Aurora kinase B): 251 nM (active)
- Ki [26]: 1000 nM (active)
- Ki [27]: 251 nM (active)
- Ki [28]: 316 nM (active)
- Ki [29]: 63.1 nM (active)
- Ki [30]: 631 nM (active)
- Ki [31]: 631 nM (active)
- Ki [32]: 1580 nM (active)
- Ki [33]: 1260 nM (active)
- Ki [34]: 100 nM (active)
- Ki [35]: 1260 nM (active)
- Ki [36]: 79.4 nM (active)
- Ki [37]: 50.1 nM (active)
- Ki [38]: 794 nM (active)
- Ki [39]: 631 nM (active)
- Ki [40]: 126 nM (active)
- Ki (LIM domain kinase 1): 158 nM (active)
- Ki [41]: > 2510 nM (inactive)
- Ki [42]: 126 nM (active)
- Ki [43]: > 3980 nM (inactive)
- Ki (Activated CDC42 kinase 1): 251 nM (active)
- Ki [44]: 631 nM (active)
- Ki [45]: 79.4 nM (active)
- Ki [46]: 631 nM (active)

SMILES: O=C(c1cc(-c2ccccc2)on1)N(C1CCCCC1)C1CCCC1
- EC50 [48]: > 50000 nM (inactive)
- EC50 [49]: > 50000 nM (inactive)

Other lines, results leading:

- AC50 [4]: 19500 nM (active)
SMILES: Cc1noc(C)c1S(=O)(=O)Nc1ccc2c(c1)CC(=O)N([C@H](C)CO)C[C@H](C)[C@@H](CN(C)S(=O)(=O)c1ccc(F)cc1)O2

- Ki [47]: 3160 nM (active)
- Ki [31]: 3160 nM (active)
SMILES: CN(C)CCc1ccc(Nc2nccc(-c3c(-c4cccc(C(O)CO)c4)nc4ccccn34)n2)cc1 (configuration not stated)

- IC50 [50]: 90500 nM (active)
SMILES: Cn1cc(C(CC(=O)c2ccc(C(C)(C)C)cc2)C(=O)O)c2ccccc21 (configuration not stated)

Reference: ChEMBL document CHEMBL1201862, “PubChem BioAssay data set” (2004)
